Assay results as given in article PMC11477000, “Enantioselective Binding of Proton Pump Inhibitors to Alpha1-Acid Glycoprotein and Human Serum Albumin—A Chromatographic, Spectroscopic, and In Silico Study” (International Journal of Molecular Sciences, 2024).
Where “and” joins values, the source holds several entries; their conditions need not be identical. Identical values can stand only once. Like-named read-outs stand apart in the source and are kept apart here.

How the values were obtained:
[1] = target: human serum albumin (HSA) (Homo sapiens, UniProt P02768); test: Bound percentage by HPLC on HSA column, extrapolation to zero organic modifier; type: in vitro ADME; settings: for Bound percentage (b%), average: average of IPA, EtOH, MeOH
Method: Chromatographic columns containing proteins can be used to determine the percentage of drug binding. A plot of the natural logarithm of the retention factors against the proportion of organic modifiers was created. […] The intercept of these linear equations can be used to calculate the bound percentage according to Equation (4) (see in Section 3.2).
Chromatographic measurements were carried out on two separate HPLC systems. The AGP binding study was performed on a Waters 2695e chromatographic system paired with a Waters 2996 PDA detector, controlled by Empower 3 FR5 (Waters Corp., Milford, MA, USA), while the HSA binding study was performed on an Agilent 1100 HPLC system, consisting of an inline degasser (G1322A), a quaternary pump (G1311A), an automatic injector (G1329A) paired with sample thermostat (G1330A), a column thermostat (G1316A), and a diode array detector (G1315A) with Agilent Chemstation B04.03-SP2 software (Agilent, Bronnwald, Germany). For the binding studies, two protein-based chiral stationary phases were utilized. The chromatographic binding study for AGP was conducted on a ChromTech Chiral-AGP column (150 mm × 4.0 mm; ChromTech Ltd., Congleton, UK), while the binding study for HSA was performed on a Daicel Chiralpak HSA column (50 mm × 4.0 mm; Daicel Corp., Osaka, Japan). The detection wavelength was 210 nm for all measurements. The stock solutions of PPIs were prepared at a concentration of 1 mg/mL in MeOH. Subsequent dilutions were prepared using water. The injected samples were mixed and diluted from the stock solutions. The final concentration for the eutomer was 0.2 mg/mL, and for the distomer, it was 0.1 mg/mL. A volume of 2 μL was injected. To mitigate the instability of PPIs in aqueous solutions, the samples were kept at a temperature of 4 °C. Cooling the samples to 4 °C prevented significant decomposition for a period of 24 h. After 24 h, new samples were prepared for injection. Chromatographic parameters were calculated based on the following equations. The retention factor (k) was calculated as:(1) k=(tr−t0)/t0 where tr is the retention time of the investigated analyte, and t0 is the dead time, determined as the first peak appearance in the chromatogram. Resolution was calculated based on the following equation:(2) Rs=2(t2−t1)/(w1+w2) where t2 and t1 are the retention times of the second and first eluted enantiomers, respectively, while w is the peak width. The separation factor (α) was calculated as follows:(3) α=k2/k1 where k1 and k2 are the retention factors of the first- and second-eluting enantiomers, respectively. The k values were also used to calculate the protein-bound percentage (b%) using Equation (4):(4) b%=k/1+k×100

[2] = test system: α1-acid glycoprotein (AGP); test: van 't Hoff thermodynamic analysis on AGP column; type: binding, human; settings: Δ(ΔH°)/Δ(ΔS°)
Method: The temperature effect was investigated at pH 7 and a 95:5 buffer:IPA eluents ratio, between 10 and 30 °C on both columns. […] The determination of thermodynamic parameters can provide valuable insights into the process of enantiodiscrimination, including its mechanistic aspects. The applied classical van ’t Hoff methodology postulates the existence of solely enantioselective interaction sites on the stationary phase. Nonetheless, it should be emphasized that a more realistic approach would encompass both enantioselective and non-enantioselective interactions. The isoenantioselective temperatures (Tiso) were calculated by dividing Δ(ΔH°) by Δ(ΔS°). At this temperature, enthalpy and entropy compensations negate each other, resulting in the coelution of the two enantiomers and no separation. […]
In the equation, R represents the universal gas constant, T represents the absolute temperature in Kelvin, and k represents the retention factor of the enantiomers. ΔH° stands for the standard enthalpy, while ΔS° represents the standard entropy change of transfer of the solute from the mobile phase to the stationary phase. Φ is the phase ratio of the column. […] Similarly, the difference in the change of standard enthalpy, Δ(ΔH°), and standard entropy, Δ(ΔS°), for the two enantiomers was calculated as follows:(6) lnα=−ΔΔH°/RT+ΔΔS°/R

BSA = settings: racemic, ref [39]; cited from earlier work
HSA [3] = target: T1, HSA (Homo sapiens, UniProt P02768); settings: ref [41]; cited from earlier work
T1 construct: purchased Sigma-Aldrich

HSA [4] = target: T1, HSA; settings: ref [42]; cited from earlier work
[5] = extrapolation to zero percent EtOH
[6] = extrapolation to zero percent IPA
[7] = extrapolation to zero percent MeOH

human serum albumin (HSA), sequence (P02768 25-609): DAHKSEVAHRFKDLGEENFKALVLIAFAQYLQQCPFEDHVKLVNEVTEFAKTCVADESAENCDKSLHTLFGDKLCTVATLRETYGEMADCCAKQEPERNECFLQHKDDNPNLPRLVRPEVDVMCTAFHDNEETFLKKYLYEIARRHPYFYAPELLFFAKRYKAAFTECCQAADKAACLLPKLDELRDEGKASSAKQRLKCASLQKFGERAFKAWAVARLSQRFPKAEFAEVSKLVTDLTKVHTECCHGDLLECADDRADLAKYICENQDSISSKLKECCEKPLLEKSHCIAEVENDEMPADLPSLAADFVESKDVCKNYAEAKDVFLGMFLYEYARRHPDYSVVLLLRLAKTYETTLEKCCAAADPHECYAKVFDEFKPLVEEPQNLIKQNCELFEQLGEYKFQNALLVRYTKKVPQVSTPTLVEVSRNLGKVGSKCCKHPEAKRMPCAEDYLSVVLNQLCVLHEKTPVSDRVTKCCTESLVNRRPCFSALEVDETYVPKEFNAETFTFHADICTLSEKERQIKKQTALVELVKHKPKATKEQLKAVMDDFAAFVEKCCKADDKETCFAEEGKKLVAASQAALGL
T1 sequence (P02768 25-609): as above

| Tiso isoenantioselective temperature [2] [°C] | Structure (SMILES) | Bound percentage (b%), average [1] | Bound percentage (b%) [1, 5] [%] | Bound percentage (b%) [1, 6] [%] | Bound percentage (b%) [1, 7] [%] | logK (BSA) | logK (HSA [3]) | logK (HSA [4]) |
| --- | --- | --- | --- | --- | --- | --- | --- | --- |
|  | Cc1c(OCC(F)(F)F)ccnc1C[S@+]([O-])c1nc2ccccc2[nH]1 [S-lansoprazole] | 94.64% and 94.64 ± 0.89% | 94.85 | 93.67 | 95.42 |  |  |  |
| −16.3 | Cc1c(OCC(F)(F)F)ccnc1C[S+]([O-])c1nc2ccccc2[nH]1 (stereo not drawn) [Lansoprazole, lansoprazole] |  |  |  |  |  |  |  |
|  | COc1ccc2[nH]c([S+]([O-])Cc3ncc(C)c(OC)c3C)nc2c1 (stereo not drawn) [Omeprazole, omeprazole] |  |  |  |  | 4.58 | 4.61 |  |
|  | Cc1c(OCC(F)(F)F)ccnc1C[S@@+]([O-])c1nc2ccccc2[nH]1 [R-lansoprazole, dexlansoprazole] | 92.45% and 92.45 ± 0.59% | 92.69 | 91.77 | 92.89 |  |  | logK = 3.44 Binding to subdomain IIA |
